Data on 11 compounds can be found in patent publication US11903936B2, “Anti-malarial agents” (THE BOARD OF REGENTS OF THE UNIVERSITY OF TEXAS SYSTEM, priority 2019, dated 2024).

The term IC50 denotes the concentration that inhibits the measured activity by half. By solubility is commonly meant the concentration that dissolves in the medium under given conditions. For orientation: microsomal CLint means the rate of metabolic loss divided by the concentration. Usually EC50 stands for the concentration that produces a half-maximal response.

In brackets after ≈: the same amount, converted by molar mass. Like-named read-outs stand apart in the source and are kept apart here. Some results are limits rather than exact numbers.

One series addresses P. vivax DHODH (Plasmodium vivax, UniProt A5K1N1). Kind of series: biochemical. In kind it is biochemical.
Another series in a line: physchem. The note with it: pH 6.5, fassif.
Another series has as its target Mouse DHODH (Mus musculus (Mouse), UniProt O35435). Kind of series: DHODH kinetic analysis (DCIP assay). Type of series: biochemical. Particulars: 25° C.
In the next series the target is Rat DHODH (Rattus norvegicus (Rat), UniProt Q63707). Kind of series: DHODH kinetic analysis (DCIP assay). Type of series: biochemical. Particulars: 25° C.
The target of the next series is Human DHODH (Homo sapiens (Human), UniProt Q02127). Kind of series: DHODH kinetic analysis (DCIP assay). In kind it is biochemical. Particulars: 25° C.
For series [1], the target named is T1, Dog DHODH (Canis lupus familiaris, UniProt A0A8I3MWX2). Kind of series: biochemical.
Description: (§1) DHODH Kinetic Analysis. […] Inhibitor stocks (100 mM) were prepared in DMSO in amber bottles. A 3-fold dilution series was generated in DMSO from these stocks and then dispensed into assay buffer via a 1/100 dilution to generate a final concentration range of 0.001-100 μM (1% DMSO final). Data were collected using triplicate technical replicates and where indicated additional biological replicates were collected (the number of biological replicates is provided in parenthesis). IC50's were determined by fitting the data to log (inhibitor) vs. response equation Y=Bottom+(Top−Bottom)/(1+10^((X−Log IC50))) in GraphPad Prism.
The next series can be described thus: in vitro. The note with it: human.
Series [2] concerns the target T1, Dog DHODH. The note with it: read-out: Dog DHODH IC50; 25° C., DCIP assay.
Description: as §1
Another series concerns the target P. falciparum DHODH (Plasmodium falciparum (isolate 3D7), UniProt Q08210). Type of series: biochemical. The note with it: 25° C., DCIP assay.
A short description of series [3]: metabolic stability, Human Clint.
In another series the test system is P. falciparum 3D7. Kind of series: P. falciparum growth and inhibition assay (SYBR Green). Particulars: chloroquine-sensitive 3D7 strain, 72 h, albuMAX media. Type of series: cell-based.
The subject of series [4] is parasitized human erythrocytes. Briefly: in vivo efficacy in the humanized SCID mouse model. Particulars: for DOR (day of recrudescence): 50 mg/kg dose b.i.d. for 6 days; for CED90: estimated average blood concentration that induces no net parasite growth.
Excerpt: During the study, samples of peripheral blood were taken from mice to measure the concentration of compounds and/or their metabolites.
DoR was estimated by linear interpolation of % parasitemia the day before the rise to PO and the % parasitemia the day after reaching PO.
The subject of series [5] is P. falciparum clinical isolates. Particulars: ex vivo, separate study in Indonesia, previously reported; cited from earlier work.
Series [6] concerns P. vivax clinical isolates. Particulars: ex vivo, separate study in Indonesia, previously reported; cited from earlier work.
Setting [7] is: 25° C., DCIP assay, read-out: P. vivax DHODH IC50.

Chain of Mouse DHODH (O35435 whole entry): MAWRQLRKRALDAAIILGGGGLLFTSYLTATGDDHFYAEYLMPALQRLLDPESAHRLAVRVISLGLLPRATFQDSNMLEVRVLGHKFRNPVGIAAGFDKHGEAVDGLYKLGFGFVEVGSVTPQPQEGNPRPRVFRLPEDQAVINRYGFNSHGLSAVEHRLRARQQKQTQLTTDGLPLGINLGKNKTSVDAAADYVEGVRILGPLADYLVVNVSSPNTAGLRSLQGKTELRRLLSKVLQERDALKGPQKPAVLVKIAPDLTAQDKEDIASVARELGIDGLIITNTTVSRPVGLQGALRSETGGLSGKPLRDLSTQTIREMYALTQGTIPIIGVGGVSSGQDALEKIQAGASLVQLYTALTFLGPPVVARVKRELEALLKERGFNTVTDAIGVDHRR
T1 sequence (A0A8I3MWX2 1-406): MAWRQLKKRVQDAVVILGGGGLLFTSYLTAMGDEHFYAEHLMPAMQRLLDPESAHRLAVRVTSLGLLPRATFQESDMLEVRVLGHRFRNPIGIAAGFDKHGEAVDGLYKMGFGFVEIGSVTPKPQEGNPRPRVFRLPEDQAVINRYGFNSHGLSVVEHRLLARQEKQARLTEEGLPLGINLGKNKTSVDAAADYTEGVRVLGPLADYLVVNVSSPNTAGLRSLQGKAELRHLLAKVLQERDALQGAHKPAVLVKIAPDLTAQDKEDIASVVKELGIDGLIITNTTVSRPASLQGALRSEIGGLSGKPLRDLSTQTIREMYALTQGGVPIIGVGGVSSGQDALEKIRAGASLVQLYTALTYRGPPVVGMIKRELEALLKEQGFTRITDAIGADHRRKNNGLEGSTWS
Chain of Human DHODH (Q02127 whole entry): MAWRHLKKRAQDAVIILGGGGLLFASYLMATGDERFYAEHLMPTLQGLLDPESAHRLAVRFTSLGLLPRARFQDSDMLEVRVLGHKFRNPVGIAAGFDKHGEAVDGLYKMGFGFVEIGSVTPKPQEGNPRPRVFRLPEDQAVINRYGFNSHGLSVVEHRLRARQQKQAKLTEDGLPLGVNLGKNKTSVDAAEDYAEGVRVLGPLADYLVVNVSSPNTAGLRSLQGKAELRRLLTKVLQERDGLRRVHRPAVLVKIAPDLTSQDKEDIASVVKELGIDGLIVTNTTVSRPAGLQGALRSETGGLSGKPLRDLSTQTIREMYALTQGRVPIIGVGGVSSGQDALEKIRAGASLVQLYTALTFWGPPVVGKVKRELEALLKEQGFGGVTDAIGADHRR
Chain of P. vivax DHODH (A5K1N1 1-572): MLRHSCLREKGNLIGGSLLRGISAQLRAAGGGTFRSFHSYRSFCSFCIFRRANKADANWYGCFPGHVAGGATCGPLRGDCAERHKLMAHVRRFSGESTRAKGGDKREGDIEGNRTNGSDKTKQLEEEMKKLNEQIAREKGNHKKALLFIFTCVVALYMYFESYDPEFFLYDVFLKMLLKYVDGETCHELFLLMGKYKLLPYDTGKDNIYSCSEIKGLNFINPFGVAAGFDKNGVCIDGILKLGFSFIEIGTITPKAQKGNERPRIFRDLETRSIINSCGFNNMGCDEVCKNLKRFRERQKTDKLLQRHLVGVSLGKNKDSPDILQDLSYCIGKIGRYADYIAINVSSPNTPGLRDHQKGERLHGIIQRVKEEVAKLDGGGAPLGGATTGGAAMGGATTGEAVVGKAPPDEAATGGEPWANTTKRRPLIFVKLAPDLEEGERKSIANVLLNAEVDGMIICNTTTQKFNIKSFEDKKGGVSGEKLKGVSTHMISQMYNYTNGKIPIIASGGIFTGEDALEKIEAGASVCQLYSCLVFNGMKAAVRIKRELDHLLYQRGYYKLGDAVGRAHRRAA
Chain of Rat DHODH (Q63707 whole entry): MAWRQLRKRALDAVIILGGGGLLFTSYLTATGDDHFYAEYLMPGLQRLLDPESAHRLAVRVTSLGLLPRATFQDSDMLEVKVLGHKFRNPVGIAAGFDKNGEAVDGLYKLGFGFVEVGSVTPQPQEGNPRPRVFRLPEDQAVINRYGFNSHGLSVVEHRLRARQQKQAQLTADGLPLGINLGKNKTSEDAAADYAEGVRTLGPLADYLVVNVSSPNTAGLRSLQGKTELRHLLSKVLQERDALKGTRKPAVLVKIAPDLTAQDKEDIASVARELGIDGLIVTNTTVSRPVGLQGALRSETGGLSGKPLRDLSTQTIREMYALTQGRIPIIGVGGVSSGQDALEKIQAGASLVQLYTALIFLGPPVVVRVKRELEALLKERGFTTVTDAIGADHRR
Chain of P. falciparum DHODH (Q08210 24-569 limits assumed): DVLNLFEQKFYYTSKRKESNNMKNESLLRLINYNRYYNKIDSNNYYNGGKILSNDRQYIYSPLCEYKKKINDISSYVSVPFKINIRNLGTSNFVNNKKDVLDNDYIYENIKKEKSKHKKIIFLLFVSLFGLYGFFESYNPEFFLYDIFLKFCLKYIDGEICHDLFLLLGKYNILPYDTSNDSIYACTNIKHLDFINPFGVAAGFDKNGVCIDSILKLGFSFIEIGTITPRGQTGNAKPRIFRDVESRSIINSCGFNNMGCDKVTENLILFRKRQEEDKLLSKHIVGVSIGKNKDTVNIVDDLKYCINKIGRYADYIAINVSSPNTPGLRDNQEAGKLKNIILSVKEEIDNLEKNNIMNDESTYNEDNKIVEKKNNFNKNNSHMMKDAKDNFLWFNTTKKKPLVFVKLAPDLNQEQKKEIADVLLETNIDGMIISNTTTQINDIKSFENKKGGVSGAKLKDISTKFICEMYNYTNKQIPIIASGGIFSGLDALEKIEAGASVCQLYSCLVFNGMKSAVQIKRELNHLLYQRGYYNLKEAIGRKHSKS
Description for Human DHODH: as §1
Description for Mouse DHODH: as §1
Description for P. falciparum 3D7: P. falciparum growth and inhibition assays. […] DSMO inhibitor stocks (as above) were diluted in DMSO using a 2 or 3-fold dilution series and then dispensed into media at 10× the final concentrations. A second step into media led to final inhibitor concentrations ranging from 0.001-30 μM and a final DMSO concentration of 0.2%. […] Data were collected using triplicate technical replicates and where indicated additional biological replicates were collected (the number of biological replicates is provided in parenthesis).
Description for P. falciparum DHODH: Inhibitor stocks (100 mM) were prepared in DMSO in amber bottles. A 3-fold dilution series was generated in DMSO from these stocks and then dispensed into assay buffer via a 1/100 dilution to generate a final concentration range of 0.001-100 μM (1% DMSO final). Data were collected using triplicate technical replicates and where indicated additional biological replicates were collected (the number of biological replicates is provided in parenthesis). IC50's were determined by fitting the data to log (inhibitor) vs. response equation Y=Bottom+(Top−Bottom)/(1+10^((X−Log IC50))) in GraphPad Prism.
Description for P. vivax DHODH: as §1
Description for Rat DHODH: as §1

Take `Cc1c(Cc2ccc(C(F)(F)F)nc2)c[nH]c1C(=O)NC(C)c1cnn(C)c1` (single isomer, unassigned) [Compound 35, 3-methyl-N-(1-(1-methyl-1H-pyrazol-4-yl)ethyl)-4-((6-(trifluoromethyl)pyridin-3-yl)methyl)-1 H-pyrrole-2-carboxamide]: the half-maximal inhibitory concentration (IC50) against P. vivax DHODH was 0.036 µM; against Mouse DHODH it was above 100 µM; against Rat DHODH it was above 100 µM; against Human DHODH, above 100 µM; against Dog DHODH [1], above 100 µM. Further, in “physchem”, the concentration in solution (solubility) was 60 µg/mL (≈ 153 µM).

Turning to `Cc1c(C2(c3ccc(C(F)(F)F)nc3)CC2)c[nH]c1C(=O)NC(C)c1cc(C#N)[nH]n1` (single isomer, unassigned) [Compound 17, N-(1-(5-cyano-1H-pyrazol-3-yl)ethyl)-3-methyl-4-(1-(6-(trifluoromethyl)pyridin-3-yl)cyclopropyl)-1H-pyrrole-2-carboxamide], the microsomal CLint in the series “in vitro” is 16 µL/min/mg. This compound also yielded an IC50 on Human DHODH above 100 µM.

As to `Cc1c(C2(c3ccc(C(F)(F)F)nc3)CC2)c[nH]c1C(=O)NC(C)c1cn[nH]c1` (single isomer, unassigned) [Compound 8, N-(1-(1H-pyrazol-4-yl)ethyl)-3-methyl-4-(1-(6-(trifluoromethyl)pyridin-3-yl)cyclopropyl)-1H-pyrrole-2-carboxamide], the microsomal CLint in “in vitro” came to 66 µL/min/mg. On Human DHODH, this compound had an IC50 above 100 µM.

Turning to `Cc1c(C2(c3ccc(C(F)(F)F)nc3)CC2)c[nH]c1C(=O)NC(C)c1cc(C(N)=O)[nH]n1` (stereo not drawn) [Compound 14], the IC50 at P. vivax DHODH (setting [7]) was 0.17 µM; on Dog DHODH [2] it was above 100 µM; at Mouse DHODH, above 100 µM; against P. falciparum DHODH, 0.14 ± 0.057 µM; at Rat DHODH, above 100 µM; against Human DHODH, above 100 µM.

For `Cc1c(Cc2ccc(C(F)(F)F)nc2)c[nH]c1C(=O)NC(C)c1cn[nH]c1` (stereo not drawn) [Compound 32], where the note is “pH 6.5”, the “FaSSIF Solubility pH 6.5 5 h” value was determined as 34 μg/ml. Moreover, the IC50 at P. vivax DHODH (setting [7]) was 0.043 µM; at Dog DHODH [2], above 100 µM; at Mouse DHODH it was above 100 µM; against P. falciparum DHODH, 0.047 ± 0.0079 µM; at Rat DHODH it was above 100 µM; on Human DHODH, above 100 µM. The “Human Clint” value in [3] is reported as 20 μL/min/mg protein.

In turn, `Cc1cc(C(C)NC(=O)c2[nH]cc(Cc3ccc(C(F)(F)F)nc3)c2C)no1` (single isomer, unassigned) [Compound 29, 3-methyl-N-(1-(5-methylisoxazol-3-yl)ethyl)-4-((6-(trifluoromethyl)pyridin-3-yl)methyl)-1H-pyrrole-2-carboxamide] showed a microsomal CLint in the series “in vitro” of 29 µL/min/mg. For the same compound, the IC50 against Mouse DHODH, on Rat DHODH, at Human DHODH and on Dog DHODH [1] was above 100 µM throughout.

In the case of “N-(1-(1H-1,2,4-triazol-3-yl) ethyl)-4-(3-fluoro-4-(trifluoromethyl)benzyl)-3-methyl-1H-pyrrole-2-carboxamide [Compound 5]”, the IC50 on P. vivax DHODH (setting [7]) was 0.061 µM; at P. falciparum DHODH, 0.11 µM; on Human DHODH, above 100 µM. In addition, a half-maximal response in the series on P. falciparum 3D7 (EC50) required 0.039 µM.

Consider `Cc1cc(Nc2ccc(S(F)(F)(F)(F)F)cc2)n2nc(C(C)(F)F)nc2n1` [DSM265, 2-(1,1-difluoroethyl)-5-methyl-N-[4-(pentafluoro-λ^6-sulfanyl)phenyl]-[1,2,4]triazolo[1,5-a]pyrimidin-7-amine, reference compound], for which the “FaSSIF Solubility pH 6.5 5 h” value (FaSSIF, pH 6.5, 5 h) was determined as 5.1 μg/ml. Also, the microsomal CLint in the series “in vitro” is below 7 µL/min/mg. Also, the “DOR (day of recrudescence)” value in series [4] (SCID mouse) was determined as 21. In [4] (SCID mouse, b.i.d. for 6 days), the AUCED90 was 35.4 μM · h/day and the CED90 is 1.48 µM/day. In series [4] (SCID mouse, b.i.d. for 6 days, clears 90% of parasites 24 h post final dose on day 7), this compound registered an ED90 of 16.7 mg/kg. Moreover, in [5], the EC50 is 0.19 µM. In series [6], the EC50 was 0.92 µM.

In “in vitro”, `Cc1c(C2(c3ccc(C(F)(F)F)nc3)CC2)c[nH]c1C(=O)NC(C)c1c[nH]cn1` (single isomer, unassigned) [Compound 20, N-(1-(1H-imidazol-4-yl)ethyl)-3-methyl-4-(1-(6-(trifluoromethyl)pyridin-3-yl)cyclopropyl)-1H-pyrrole-2-carboxamide] gave a microsomal CLint of 35 µL/min/mg. The IC50 on Human DHODH was above 100 µM.

`Cc1cc(C(C)NC(=O)c2[nH]cc(C3(c4ccc(C(F)(F)F)nc4)CC3)c2C)n[nH]1` (single isomer, unassigned) [Compound 11, 3-methyl-N-[1-(5-methyl-1H-pyrazol-3-yl)ethyl]-4-{1-[6-(trifluoromethyl)pyridine-3-yl]cyclopropyl}-1H-pyrrole-2-carboxamide] gave a microsomal CLint in the series “in vitro” of 40 µL/min/mg. Further, the IC50 at Human DHODH was above 100 µM.

With `Cc1c(C2(c3ccc(C(F)(F)F)nc3)CC2)c[nH]c1C(=O)NC(C)c1nc[nH]n1` (single isomer, unassigned) [Compound 2, 3-methyl-N-[1-(1H-1,2,4-triazol-3-yl)ethyl]-4-{1-[6-(trifluoromethyl)pyridin-3-yl]cyclopropyl}-1H-pyrrole-2-carboxamide], the microsomal CLint in the series “in vitro” worked out at 11 µL/min/mg. Also, the IC50 against Mouse DHODH, against Rat DHODH, against Human DHODH and against Dog DHODH [1] was above 100 µM each time. Moreover, the “DOR (day of recrudescence)” value in [4] (SCID mouse) was determined as 22. Moreover, in series [4] (SCID mouse, b.i.d. for 6 days), the AUCED90 stood at 35.6 μM · h/day. Also, the CED90 in [4] (SCID mouse, b.i.d. for 6 days) is 1.48 µM/day. In series [4] (mouse, in vivo), this compound returned an ED90 of 25.6 mg/kg.
